Data on two compounds can be found in patent US20250161346A1, “METHODS FOR TREATING HEPATITIS B VIRUS INFECTION” (KAOHSIUNG MEDICAL UNIVERSITY, priority 2022, published 2025).

Molecules are shown by their SMILES. “Also recorded” adds a separate entry of the source.

The test system of data set [1] is Kaposi's sarcoma-associated herpesvirus (KSHV). Particulars: cited from earlier work.
In data set [2] the test system is HBV. Kind of data set: HBV virion secretion assay, HuH-7 cells transfected with HBV replicon, native agarose gel with Western and Southern blot. It counts as cell-based, hepatitis B virus. The procedure: (§1) FIGS. 6A and 6B show a cartoon illustration for the analysis methods of extracellular and intracellular HBV viral and subviral particles. […] Viral and subviral particles are separated and characterized by Southern and Western blot analyses. Anti-HBc and anti-HBs antibodies are used consecutively for the same Western blot filters. Southern blot is performed in a separate agarose gel which allows the differentiation of genome-containing (G^+) from genome-free (G^−) viral and subviral particles. […] Then, the RNA/DNA signals are analyzed by Northern blot and Southern blot. 3.5 kb pgRNA: full-length 3.5 kb pre-genomic RNA. RT RNA: reverse transcripted RNA.
(§2) This mutant secretes no naked capsids. V/NC: Virions/naked capsids.
An HBV replicon plasmid is transfected into HuH-7 human hepatoma cell line. SINE compound KPT-8602 is added to the transfected culture at 0 hr post-transfection (i.e., co-treatment). Extracellular media are collected on day 5 (120 hr) post-transfection. Assays for virion secretion are as described in FIG. 6A. Secretion of naked capsids is 100-fold (10 μM/0.1 μM) less sensitive to KPT-8602 treatment than virions.
(§3) HBV secreted a total of six different viral and subviral particles in hepatocyte cell culture (FIG. 5). The only infectious particles were the genome-containing virions, which contained envelope protein, capsids, and encapsidated relaxed circle DNA genome. In FIGS. 6A and 6B, a cartoon illustrated the analysis methods of extracellular and intracellular HBV viral and subviral particles. […] Adding drug at 1-day post infection was not effective in blocking virion secretion (FIG. 7C). The potential cytotoxicity of KPT-335 was evaluated using two different methods—Alamar Blue and CCK-8 assays (FIG. 8).

In a further data set the test system is HuH-7 cells. As to the kind of experiment: Cell proliferation by alamarBlue and CCK-8 assays. It counts as cell-based, human.
Source text: as §3

Data set [3] concerns human cytomegalovirus (HCMV). Conditions: by increasing the expression of type I interferon; cited from earlier work.
The test system of data set [4] is HBV. Kind of data set: Southern and Northern blot analyses of HBV DNA synthesis and capsid-associated pgRNA in the infection assay. It is filed as cell-based, hepatitis B virus. Conditions: cotreatment, 0.5-1 μM. The procedure:
(§4) However, HBc is strongly arrested in the nucleus by about 150-fold at 9 dpi, when co-treated with compounds KPT-330 or KPT-335. These two drugs are CRM1 inhibitors. Green: HBc. Red: NTCP. Blue: DAPI. […] Briefly, the infected culture of HepG2-NTCP-AS cells are treated with KPT-335 (0.5-1 μM) at 0, 3, and 5 dpi continuously until cell harvesting. Media are collected for ELISA of HBsAg and HBeAg. Cells are harvested for further analysis by Southern blot (SB) and Northern blots (NB). […] The level of total cytoplasmic viral RNA is reduced moderately by treatment with SINE compounds (1 μM). Comparisons of relaxed circular (RC) DNA banding intensities are as described in FIGS. 1A-1B legend, and normalized here to the no drug treatment control. SS: […].
(§5) The results in FIGS. 1A-1B by genetic mutant analysis was also supported by the results from the CRM1 drug treatment experiment (FIGS. 2A-2F). KPT-330 and KPT-335 are known CRM1 inhibitors. In an HBV in vitro infection system, when KPT-330 or KPT-335 were added to the cell culture before or soon after the infection with HBV, HBc was strongly arrested in the nucleus by immunofluorescence microscopy (FIG. 2A). Relative to the control with no drug treatment, KPT-330 and KPT-335 could increase nuclear HBc by approximately 150-fold (FIG. 2B). HBsAg and HBeAg were HBV serum markers.

Data set [5] relates to HBV. As to the kind of experiment: ELISA of HBsAg and HBeAg in medium, time course of drug treatment in HBV infection system (HepG2-NTCP-AS cells). It is filed as cell-based, hepatitis B virus. How it is done: as §4, §5
On the technique in general: An ELISA detects its analyte on a solid surface through an enzyme-linked reagent.

Data set [6] relates to HBV. Kind of data set: Intracellular WT-HBV capsid protein, capsid-associated viral RNA and DNA in the dose-response experiment. It counts as cell-based, hepatitis B virus. Particulars: 0.5 μM. How it is done:
as §1, §2, §3

[7] abbreviates: drug and virus added at the same time (co-treatment), 0.5-1 μM.

As to `NC(=O)/C(=C/n1cnc(-c2cc(C(F)(F)F)cc(C(F)(F)F)c2)n1)c1cncnc1` [KPT-8602, Eltanexor], the “lytic replication of KSHV” value in data set [1] is listed as “reduced”. The HBV virion secretion result with HBV [2] (0.1 μM, co-treatment at 0 hr post-transfection, media collected day 5) is reported as “blocks; also recorded: nearly completely block”. Moreover, in the data set on HBV [2] (0.1, 0.25, 0.5 and 1 μM), the “inhibition of HBV virion secretion, side-by-side comparison” value is “more inhibitory than KPT-335” and the “secretion of naked capsids, sensitivity in contrast to virions” value was “much less sensitive”. Further, the “potency, side-by-side comparison” value in the data set on HBV [2] (HBV virion secretion, HuH-7) is “more potent”. In the data set with HBV [2] (HuH-7, co-treatment, day 5), the “secretion of naked capsids less sensitive than virions (10 μM/0.1 μM)” value is 100 fold. The “cytotoxicity, side-by-side comparison” value with HuH-7 cells was “less cytotoxic”. The “inhibition of human cytomegalovirus (HCMV)” value in data set [3] is “inhibit”.
Regarding `O=C(/C=C\n1cnc(-c2cc(C(F)(F)F)cc(C(F)(F)F)c2)n1)NNc1ccccn1` [KPT-335, Verdinexor], the HBV virion secretion result in the data set with HBV [2] (0.5 μM, co-treatment) is listed as “almost completely block”. The “secretion of naked capsids, sensitivity in contrast to virions” value in the data set with HBV [2] (0.1, 0.25, 0.5 and 1 μM) is listed as “much less sensitive”. The blocking virion secretion entry in the data set with HBV [2] (drug added at 1-day post infection) is reported as “not effective”. Besides, in the data set with HBV [4], the “HBV DNA synthesis” value is “strongly inhibited”, the “HBV RNA encapsidation (cytoplasmic capsid-associated pgRNA)” value was “strongly inhibited” and the “formation of HBc capsids” value is recorded as “strongly inhibited”. Besides, in the data set with HuH-7 cells (below 0.25 μM, alamarBlue and CCK-8), the anti-proliferation effect entry is recorded as “No significant anti-proliferation effect”. For the same compound, in the data set on HBV [5] (added at 3 or 5 dpi), the “effect on HBV” value is “no effect”. For the same compound, in the data set with HBV [5] (drug added at 3 or 5 dpi), the “HBeAg in the medium by ELISA” value is given as “no apparent effect” and the “HBsAg in the medium by ELISA” value is on record as “no apparent effect”. In the data set with HBV [5] (setting [7]), the “HBeAg in the medium by ELISA” value is reported as “inhibit; also recorded: complete inhibition” and the “HBsAg in the medium by ELISA” value was “inhibit; also recorded: complete inhibition”. Besides, in the data set on HBV [6], the capsid protein result was “no significant effect” and the “capsid-associated RNA (RNA encapsidation)” value is recorded as “no significant effect”.
